Where two headings read alike, the source gives them in different places.
Assays:
[1] = test system: intracellular MRSA in HeLa cells; assay: Gentamicin protection assay with CFU count in MRSA-infected HeLa cells; assay type: cell-based, Staphylococcus aureus; details: for effect on intracellular MRSA burden: 991 used at 25 μM, rapamycin at 1 μM, Figure 5J; for CFU (% of DMSO) at 10 µM: MRSA-infected HeLa cells
Method: The cells were resuspended in cell culture medium without antibiotics, seeded with 10,000 cells/well into Costar flat-bottom 96-well plates (Corning, Amsterdam, the Netherlands), and were incubated overnight at 37°C/5% CO2. The next day, the bacteria were centrifuged at ≥1800 g for 15 min and resuspended in cold PBS + 5 mM ethylenediaminetetraacetic acid (EDTA). The number of CFUs present in the bacterial suspension was estimated from the optical density at 600 nm (OD600) by assuming 8x10^8 CFUs to be present in a bacterial suspension with OD600 = 1, based on prior titrations. The bacterial suspension was diluted in cell culture medium without antibiotics and added to the cells. Accuracy of the multiplicity of infection (MOI) was validated by plating serial dilutions of the MRSA inoculums on Difco TS agar plates (BD Biosciences). The calculated mean MOI throughout all experiments was 6.8 ± 4.6 (mean ± SD). Infected cells were centrifuged for 3 min at 150 g and incubated for 1 hour at 37°C/5% CO2. Next, the cells were incubated with fresh cell culture medium supplemented with 30 µg/ml gentamicin sulphate (Lonza BioWhittaker, Basel, Switzerland) for 15 min at 37°C/5% CO2 to kill residual extracellular bacteria. Infected cells were incubated overnight at 37°C/5% CO2 in cell culture medium in the presence of kinase inhibitors and 5 µg/ml gentamicin sulphate-containing medium to prevent the growth of extracellular bacteria. The solvent of the compounds, DMSO, was used at equal % v/v as a negative control. For the screen, each compound was tested in triplicate, on separate cell culture plates, resulting in triplicate values for each kinase inhibitor.
Infected cells were lysed in sterile water + 0.05% UltraPure SDS solution (Invitrogen, ThermoFisher Scientific) to release intracellular bacteria. Bacterial suspensions and lysates of cells infected with MRSA were 5-fold serially diluted and 10-μl drops were plated on square TS agar plates. The plates were left to dry and incubated overnight at 37°C/5% CO2.

planktonic MRSA cultures = assay: Bacterial growth assay in cell-free planktonic MRSA cultures (OD600); assay type: cell-based, Staphylococcus aureus; details: for direct antibiotic effects against MRSA: planktonic cultures
Method: […] The absorbance was measured using an EnVision plate reader (PerkinElmer). The plates were incubated at 37°C overnight and the absorbance was measured again the next day. Real-time measurement of bioluminescence by the MRSA-lux strain was performed in a white flat-bottom 96-wells plate using a SpectraMax i3x plate reader and an integration time set at 9000 ms.

MRSA = details: especially against MRSA biofilm formation; ref Liu et al., 2022; cited from earlier work
HER2 [2] = test system: HER2; parameters: method as in Drewry et al., 2017; details: PKIS2, KinomeScan, ref Drewry et al., 2017; cited from earlier work
HER4 [3] = test system: HER4; parameters: method as in Drewry et al., 2017; details: PKIS2, KinomeScan, ref Drewry et al., 2017; cited from earlier work
EGFR [4] = test system: EGFR; parameters: method as in Drewry et al., 2017; details: PKIS2, KinomeScan, ref Drewry et al., 2017; cited from earlier work
HER2 [5] = test system: HER2; parameters: method as in Elkins et al., 2016; details: PKIS1, Caliper assay, ref Elkins et al., 2016; cited from earlier work
intracellular MRSA = assay type: cell-based, Staphylococcus aureus; details: for %GFP+ rep 1 / z-scoreMRSA+ rep 1: replicate 1; for %GFP+ rep 2 / z-scoreMRSA+ rep 2: replicate 2; for %GFP+ rep 3 / z-scoreMRSA+ rep 3: replicate 3; for z-scoreMRSA+ mean: mean of 3 replicates
How it was run: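 HeLa cells infected with GFP-MRSA (MOI ~6.8), gentamicin-cleared, then incubated overnight at 37°C with inhibitors plus 5 µg/ml gentamicin; DMSO as negative control, triplicates. Flow cytometry gave % GFP-positive cells and cell count (viability surrogate); hits by plate z-score (MRSA ≤ -2, HeLa count ≥ -3).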

HeLa cells = assay: Compound screen by flow cytometry: HeLa cell count as surrogate readout of cell viability (z-scoreHeLa); assay type: cell-based, human; details: for cell count rep 1 / z-scoreHeLa rep 1: replicate 1; for cell count rep 2 / z-scoreHeLa rep 2: replicate 2; for cell count rep 3 / z-scoreHeLa rep 3: replicate 3; for z-scoreHeLa mean: mean of 3 replicates
How it was run: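 HeLa cells were infected with GFP-MRSA (mean MOI 6.8 ± 4.6) for 1 h, and extracellular bacteria were killed with 30 µg/ml gentamicin. Cells were then incubated overnight with kinase inhibitors in 5 µg/ml gentamicin, in triplicate against DMSO controls. Flow-cytometric cell count served as a viability surrogate, expressed as a plate z-score.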

EGFR [6] = test system: EGFR; parameters: method as in Elkins et al., 2016; details: PKIS1, Caliper assay, ref Elkins et al., 2016; cited from earlier work
HER4 [7] = test system: HER4; parameters: method as in Elkins et al., 2016; details: PKIS1, Caliper assay, ref Elkins et al., 2016; cited from earlier work
[8] = PKIS compounds raw data, MRSA-infected HeLa cells
[9] = compound screen, MRSA-infected HeLa cells
[10] = PKIS compounds raw data, HeLa cell count
[11] = compound screen, HeLa cell count
[12] = PKIS compound screen raw data, MRSA-infected HeLa cells
[13] = PKIS compound screen, MRSA-infected HeLa cells
[14] = PKIS compound screen, Yes/No call (effect without cell death)
[15] = PKIS compound screen, Yes/No call on z-scoreMRSA+
[16] = PKIS compound screen raw data, HeLa cell count
[17] = PKIS compound screen, HeLa cell count
[18] = PKIS compound screen, Yes/No call on z-scoreHeLa
[19] = PKIS compound screen, Yes/No call

Cc1ccc(Oc2nc3cc(-c4ccc5c(ccn5C)c4)c(Cl)cc3[nH]2)cc1C(=O)O [Compound 991, reference compound]
effect on intracellular MRSA burden ([1]; HeLa cells): able to reduce the intracellular MRSA burden similar to GW296115X
direct antibiotic effects against MRSA (planktonic MRSA cultures; Supplementary Figure S5): shows direct antibiotic effects

CS(=O)(=O)CCNCc1ccc(-c2ccc3ncnc(Nc4ccc(OCc5cccc(F)c5)c(Cl)c4)c3c2)o1 [lapatinib, reference compound]
increase in the intracellular bacterial burden ([1]; 3 µM, HeLa cells): 80%
activity against intracellular MRSA ([1]; 10 and 30 µM, HeLa cells): only modestly active
effect on planktonic MRSA growth (direct antibiotic effect) (planktonic MRSA cultures; up to 100 µM concentration, Supplementary Figure S5): did not observe this direct effect
concentrations resulting in direct antimicrobial effects (MRSA): above 10 µM

CS(=O)(=O)CCNCc1nc(-c2ccc3ncnc(Nc4ccc(OCc5ccccc5)c(Cl)c4)c3c2)cs1 [GW582764]
% inhibition at 1 µM HER2 (HER2 [2]): 100%
% inhibition at 1 µM HER4 (HER4 [3]): 97.8%

CS(=O)(=O)CCNCc1nc(-c2ccc3ncnc(Nc4ccc(OCc5cccc(F)c5)c(Cl)c4)c3c2)cs1 [GW583340]
% inhibition at 1 µM EGFR (EGFR [4]): 99.9%
% inhibition at 1 µM HER2 (HER2 [2]): 99.7%
% inhibition at 1 µM HER4 (HER4 [3]): 99.1%

CS(=O)(=O)CCNCc1ccc(-c2ccc3ncnc(Nc4ccc(OCc5ccccc5)c(Br)c4)c3c2)o1 [GW580496A]
% inhibition at 1 µM HER2 (HER2 [5]): 74%
%GFP+ rep 1 (intracellular MRSA; [8]): 5.4%
%GFP+ rep 2 (intracellular MRSA; [8]): 6.0%
%GFP+ rep 3 (intracellular MRSA; [8]): 5.1%
effect (intracellular MRSA; Yes/No call from z-scoreMRSA+): Yes
hit (intracellular MRSA; Yes/No: effect without cell death): Yes
z-scoreMRSA+ mean (intracellular MRSA; [9]): -2.73
z-scoreMRSA+ rep 1 (intracellular MRSA; [9]): -2.50
z-scoreMRSA+ rep 2 (intracellular MRSA; [9]): -2.51
z-scoreMRSA+ rep 3 (intracellular MRSA; [9]): -3.18
cell count rep 1 (HeLa cells; [10]): 5658
cell count rep 2 (HeLa cells; [10]): 6483
cell count rep 3 (HeLa cells; [10]): 11366
cell death (HeLa cells; Yes/No call from z-scoreHeLa): No
z-scoreHeLa mean (HeLa cells; [11]): 1.53
z-scoreHeLa rep 1 (HeLa cells; [11]): 0.80
z-scoreHeLa rep 2 (HeLa cells; [11]): 1.67
z-scoreHeLa rep 3 (HeLa cells; [11]): 2.11
% inhibition at 1 µM EGFR (EGFR [6]): 82%
CFU (% of DMSO) at 10 µM [1]: 65.3 % of DMSO
% inhibition at 1 µM HER4 (HER4 [7]): 80%

NC(=O)c1cccc(Nc2nccc(Nc3ccc(Oc4cccc(Cl)c4)c(Cl)c3)n2)c1 [GW659008A]
%GFP+ rep 1 (intracellular MRSA; [12]): 9.2%
%GFP+ rep 2 (intracellular MRSA; [12]): 10.5%
%GFP+ rep 3 (intracellular MRSA; [12]): 10.3%
z-scoreMRSA+ mean (intracellular MRSA; [13]): -2.69
z-scoreMRSA+ rep 1 (intracellular MRSA; [13]): -2.76
z-scoreMRSA+ rep 2 (intracellular MRSA; [13]): -2.41
z-scoreMRSA+ rep 3 (intracellular MRSA; [13]): -2.89
hit (intracellular MRSA; [14]): Yes
effect (intracellular MRSA; [15]): Yes
cell count rep 1 (HeLa cells; [16]): 25296
cell count rep 2 (HeLa cells; [16]): 38684
cell count rep 3 (HeLa cells; [16]): 42387
z-scoreHeLa mean (HeLa cells; [17]): 0.60
z-scoreHeLa rep 1 (HeLa cells; [17]): 0.78
z-scoreHeLa rep 2 (HeLa cells; [17]): 0.73
z-scoreHeLa rep 3 (HeLa cells; [17]): 0.30
cell death (HeLa cells; [18]): No
inhibition at 10 µM (planktonic MRSA cultures; Staphylococcus aureus, MRSA, read-out: inhibition of planktonic MRSA growth): 67.3%

CS(=O)(=O)CCNCc1ccc(-c2ccc3ncnc(Nc4ccc(OCc5ccccc5)c(Cl)c4)c3c2)o1 [GW574783B]
% inhibition at 1 µM HER2 (HER2 [5]): 75%
%GFP+ rep 1 (intracellular MRSA; [12]): 11.2%
%GFP+ rep 2 (intracellular MRSA; [12]): 11.2%
%GFP+ rep 3 (intracellular MRSA; [12]): 14.4%
z-scoreMRSA+ mean (intracellular MRSA; [13]): -1.99
z-scoreMRSA+ rep 1 (intracellular MRSA; [13]): -2.11
z-scoreMRSA+ rep 2 (intracellular MRSA; [13]): -2.20
z-scoreMRSA+ rep 3 (intracellular MRSA; [13]): -1.64
effect (intracellular MRSA; [19]): Yes
hit (intracellular MRSA; [14]): No and Yes
effect (intracellular MRSA; [15]): No
z-scoreMRSA+ mean (intracellular MRSA; PKIS compound screen): -2.62
z-scoreMRSA+ rep 1 (intracellular MRSA; PKIS compound screen): -2.66
z-scoreMRSA+ rep 2 (intracellular MRSA; PKIS compound screen): -2.54
z-scoreMRSA+ rep 3 (intracellular MRSA; PKIS compound screen): -2.65
%GFP+ rep 1 (intracellular MRSA; [8]): 13.4%
%GFP+ rep 2 (intracellular MRSA; [8]): 12.8%
%GFP+ rep 3 (intracellular MRSA; [8]): 13.0%
z-score GFP+ (intracellular MRSA; flow cytometry screen, 10 µM, HeLa cells): -2.30
cell count rep 1 (HeLa cells; [16]): 17891
cell count rep 2 (HeLa cells; [16]): 35533
cell count rep 3 (HeLa cells; [16]): 50424
z-scoreHeLa mean (HeLa cells; [17]): 0.46
z-scoreHeLa rep 1 (HeLa cells; [17]): -0.34
z-scoreHeLa rep 2 (HeLa cells; [17]): 0.14
z-scoreHeLa rep 3 (HeLa cells; [17]): 1.58
cell death (HeLa cells; [19]): No
cell death (HeLa cells; [18]): No
z-scoreHeLa mean (HeLa cells; PKIS compound screen): 1.91
z-scoreHeLa rep 1 (HeLa cells; PKIS compound screen): 1.69
z-scoreHeLa rep 2 (HeLa cells; PKIS compound screen): 1.91
z-scoreHeLa rep 3 (HeLa cells; PKIS compound screen): 2.13
cell count rep 1 (HeLa cells; [10]): 8853
cell count rep 2 (HeLa cells; [10]): 8889
cell count rep 3 (HeLa cells; [10]): 8965
% inhibition at 1 µM EGFR (EGFR [6]): 91%
CFU (% of DMSO) at 10 µM [1]: 53.4 % of DMSO
% inhibition at 1 µM HER4 (HER4 [7]): 89%

CO/C1=C\C(C)=C\[C@@H](C)[C@@H](O)[C@@H](C)C/C(C)=C/C=C/[C@H](OC)[C@@H]([C@@H](C)[C@@H](O)[C@H](C)[C@@]2(O)C[C@@H](O)[C@H](C)[C@@H](C(C)C)O2)OC1=O [bafilomycin A1, reference compound]
reduction in the intracellular bacterial burden ([1]; HeLa cells, bafilomycin A1 alone (used at 100 nM)): 70%
direct antibiotic effects against MRSA (planktonic MRSA cultures; Supplementary Figure S5): not the case

CO[C@H]1C[C@@H]2CC[C@@H](C)[C@@](O)(O2)C(=O)C(=O)N2CCCC[C@H]2C(=O)O[C@H]([C@H](C)C[C@@H]2CC[C@@H](O)[C@H](OC)C2)CC(=O)[C@H](C)/C=C(\C)[C@@H](O)[C@@H](OC)C(=O)[C@H](C)C[C@H](C)/C=C/C=C/C=C/1C [rapamycin, reference compound]
effect on intracellular MRSA burden ([1]; HeLa cells): able to reduce the intracellular MRSA burden similar to GW296115X
direct antibiotic effects against MRSA (planktonic MRSA cultures; Supplementary Figure S5): not the case

Source: article PMC10999543, “Identification of kinase modulators as host-directed therapeutics against intracellular methicillin-resistant Staphylococcus aureus” (Frontiers in Cellular and Infection Microbiology, 2024)
